The experiment deals with T1, CaMKIIδ (Homo sapiens, UniProt Q13557).
T1 construct: His/Gln tag (C)
Briefly: In vitro CaMKIIδ activity (inhibition) assay, coupled assay measuring ADP released. Format: biochemical. Particulars: full length C-terminal His/Gln tagged CaMKIIδ construct, 16 nM; peptide substrate AC3; 25° C. How it is done: An exemplary procedure for the in vitro CaMKIIδ inhibition assay, which can be used to determine the inhibitory action of compounds of the invention toward CaMKII, follows. The procedure is taken from Chao L H, et al., (2010) Nat Struct Mol Biol. 17(3): 264-272, which is incorporated herein by reference in its entirety.
The inhibition of CaMKII activity was evaluated using a coupled assay measuring ADP released following ATP hydrolysis and phosphor-transfer to the peptide substrate AC3 (KKALHRQETVDAL; SEQ ID NO: 1) (1). A full length, C-terminal His/Gln tagged CaMKIIδ construct was used (sequence in Table 2 below).
Compounds were added in 5 uL volume to wells in UV transparent 96-well plates (½ area well size). The final compound concentrations tested ranged from 0.5 nM to 10 uM). Assays were performed in duplicate. CaMKIIδ is added to at a final concentration of 16 nM to a mixture containing 100 mM Tris (pH 7.5), 150 mM KCl, 0.27 mM EGTA, 1.3 mM PEP, 0.2 mg/ml AC3, 6.9% (v/v) PK/LDH mixture (Sigma P0294), 0.38 mM NADH and kept on ice. 72 uL of the enzyme mixture was added to the wells containing compounds and the plate was shaken briefly and kept on ice. The assay was initiated by adding 23 uL of a mixture containing 100 mM Tris (pH 7.5), 150 mM KCl, 1.7 mM CaCl2, 48 mM MgCl2, 0.35 mM ATP and 6.7 ug/mL calmodulin. The rate of ADP released was measured as the rate of absorbance decrease at […] at 25° C. and plotted against the log of the compound concentration (FIG. 1). IC50 data were fitted using GraphPad Prism software.

Data on 14 compounds can be found in patent US9951061B2, “CaMKII inhibitors and uses thereof” (Allosteros Therapeutics, Inc., priority 2013, dated 2018).

SMILES strings stand for the structures.

T1 sequence (Q13557 whole entry, looked up): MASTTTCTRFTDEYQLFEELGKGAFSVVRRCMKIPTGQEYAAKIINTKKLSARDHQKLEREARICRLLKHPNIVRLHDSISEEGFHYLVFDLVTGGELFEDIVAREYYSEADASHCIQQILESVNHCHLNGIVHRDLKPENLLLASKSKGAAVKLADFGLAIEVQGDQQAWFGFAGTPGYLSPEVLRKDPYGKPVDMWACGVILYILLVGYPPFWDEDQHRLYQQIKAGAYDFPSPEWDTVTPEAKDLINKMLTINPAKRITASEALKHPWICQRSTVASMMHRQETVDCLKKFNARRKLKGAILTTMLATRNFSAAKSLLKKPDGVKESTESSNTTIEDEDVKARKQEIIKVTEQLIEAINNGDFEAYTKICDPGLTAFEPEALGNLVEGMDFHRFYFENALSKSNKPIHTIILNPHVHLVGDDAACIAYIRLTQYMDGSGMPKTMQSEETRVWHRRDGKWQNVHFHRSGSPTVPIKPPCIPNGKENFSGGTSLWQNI

One may read the IC50 as the concentration that gives 50% inhibition. `c1cc(-c2ccnc3[nH]c4ccccc4c23)cc(N2CCNCC2)c1` [Compound I-1, 4-(3-(piperazin-1-yl)phenyl)-9H-pyrido[2,3-b]indole]: the IC50 lay in the range of 50 to 250 nM.
On to `c1cc(-c2ccnc3[nH]c4ccccc4c23)cc(-n2ccnc2)c1` [Compound I-2, 4-(3-(1H-imidazol-1-yl)phenyl)-9H-pyrido[2,3-b]indole], for which the half-inhibitory concentration (IC50) is at least 1000 nM.
Consider `NCc1cccc(-c2ccnc3[nH]c4ccccc4c23)c1` [Compound I-3, (3-(9H-pyrido[2,3-b]indol-4-yl)phenyl)methanamine], for which the concentration for half-maximal inhibition (IC50) is at least 1000 nM.
Next, `N=C(N)Nc1cccc(-c2ccnc3[nH]c4ccccc4c23)c1` [Compound I-4, 1-(3-(9H-pyrido[2,3-b]indol-4-yl)phenyl)guanidine]: 50 to 250 nM; `N=C(N)NCc1cccc(-c2ccnc3[nH]c4ccccc4c23)c1` [Compound I-5, 1-(3-(9H-pyrido[2,3-b]indol-4-yl)benzyl)guanidine]: 250 to 1000 nM; `Nc1cccc(-c2ccnc3[nH]c4ccccc4c23)c1` [Compound I-6, 3-(9H-pyrido[2,3-b]indol-4-yl)aniline]: 50 to 250 nM.
Next, `NCCNc1cccc(-c2ccnc3[nH]c4ccccc4c23)c1` [Compound I-7, N1-(3-(9H-pyrido[2,3-b]indol-4-yl)phenyl)ethane-1,2-diamine]: at most 50 nM; `NCCCNc1cccc(-c2ccnc3[nH]c4ccccc4c23)c1` [Compound I-8, N1-(3-(9H-pyrido[2,3-b]indol-4-yl)phenyl)propane-1,3-diamine]: at most 50 nM; `NCCOc1cccc(-c2ccnc3[nH]c4ccccc4c23)c1` [Compound I-9, 2-(3-(9H-pyrido[2,3-b]indol-4-yl)phenoxy)ethanamine]: at most 50 nM.
On to `NCCCOc1cccc(-c2ccnc3[nH]c4ccccc4c23)c1` [Compound I-10, 3-(3-(9H-pyrido[2,3-b]indol-4-yl)phenoxy)propan-1-amine], for which the IC50 was at most 50 nM.
For `Cc1ccc2c(c1)[nH]c1nccc(-c3cccc(NCCN)c3)c12` [Compound I-11] the value was at most 50 nM; for `COc1ccc2c(c1)[nH]c1nccc(-c3cccc(NCCN)c3)c12` [Compound I-12, N1-(3-(7-methoxy-9H-pyrido[2,3-b]indol-4-yl)phenyl)ethane-1,2-diamine], at most 50 nM; for `Cc1ccc2[nH]c3nccc(-c4cccc(NCCN)c4)c3c2c1` [Compound I-13, N1-(3-(6-methyl-9H-pyrido[2,3-b]indol-4-yl)phenyl)ethane-1,2-diamine], at most 50 nM.
Consider `NCCNc1cccc(-c2ccnc3[nH]c4ccc(Cl)cc4c23)c1` [Compound I-14, N1-(3-(6-chloro-9H-pyrido[2,3-b]indol-4-yl)phenyl)ethane-1,2-diamine], for which the IC50 is at most 50 nM.
